Reference: ChEMBL document CHEMBL1201862, “PubChem BioAssay data set” (2004)
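1) Cells in 96-well plates. 2) Compound, 48 h, 5 concentrations. 3) Linear interpolation between surrounding doses. 4) Unreached endpoint = highest concentration. Here, GI50 denotes the concentration required for 50% inhibition of growth.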 The source made the active and inactive calls. Rule as the data show it: active = GI50 up to about 1.1 µM and inactive = higher.

Tests used:
Assay in all cases: DTP human tumour cell line panel, 48 h
SNB-78 = system: SNB-78
Malme-3M = system: Malme-3M
HOP-62 = system: HOP-62
UACC-257 = system: UACC-257
ACHN = system: ACHN
XF498 = system: XF498
IGROV-1 = system: IGROV-1
SR = system: SR
OVCAR-4 = system: OVCAR-4
SW-620 = system: SW-620
CAKI-1 = system: CAKI-1
HOP-92 = system: HOP-92
RPMI-8226 = system: RPMI-8226
UACC-62 = system: UACC-62
NCI-H522 = system: NCI-H522
HCC 2998 = system: HCC 2998
LXFL 529 = system: LXFL 529
HL-60 = system: HL-60

SMILES	GI50 (SNB-78)	GI50 (Malme-3M)	GI50 (HOP-62)	GI50 (UACC-257)	GI50 (ACHN)	GI50 (XF498)	GI50 (IGROV-1)	GI50 (SR)	GI50 (OVCAR-4)	GI50 (SW-620)	GI50 (CAKI-1)	GI50 (HOP-92)	GI50 (RPMI-8226)	GI50 (UACC-62)	GI50 (NCI-H522)	GI50 (HCC 2998)	GI50 (LXFL 529)	GI50 (HL-60)
O=C(O)NC(c1ccccc1)C(NC(=O)c1ccccc1)c1ccccc1 (configuration not stated)	> 100 µM (inactive)	> 100 µM (inactive)	> 100 µM (inactive)	> 100 µM (inactive)	> 100 µM (inactive)	> 100 µM (inactive)	> 100 µM (inactive)	> 100 µM (inactive)	> 100 µM (inactive)	> 100 µM (inactive)	> 100 µM (inactive)	> 100 µM (inactive)	> 100 µM (inactive)	> 100 µM (inactive)				
COC(=O)CCC(NC(=S)N/N=C(\C)c1cccs1)C(=O)OC (configuration not stated)	> 100 µM (inactive)	> 100 µM (inactive)	> 100 µM (inactive)	> 100 µM (inactive)	> 100 µM (inactive)	> 100 µM (inactive)	> 100 µM (inactive)		> 100 µM (inactive)	> 100 µM (inactive)		> 100 µM (inactive)		> 100 µM (inactive)	> 100 µM (inactive)	> 100 µM (inactive)	> 100 µM (inactive)	
Cn1c(=O)n(C2(C)C[Se]C2)c2ccccc21	> 100 µM (inactive)		> 100 µM (inactive)	> 100 µM (inactive)	> 100 µM (inactive)		> 100 µM (inactive)	> 100 µM (inactive)	> 100 µM (inactive)	> 100 µM (inactive)	> 100 µM (inactive)	> 100 µM (inactive)	> 100 µM (inactive)	> 100 µM (inactive)	> 100 µM (inactive)	65.3 µM (inactive)	> 100 µM (inactive)	> 100 µM (inactive)
CC1=C2C=CC(=O)C[C@@]2(C)CCC1	> 100 µM (inactive)	> 100 µM (inactive)	> 100 µM (inactive)	> 100 µM (inactive)	> 100 µM (inactive)	> 100 µM (inactive)	> 100 µM (inactive)		> 100 µM (inactive)	> 100 µM (inactive)	> 100 µM (inactive)	> 100 µM (inactive)	> 100 µM (inactive)	> 100 µM (inactive)	> 100 µM (inactive)	> 100 µM (inactive)	> 100 µM (inactive)	> 100 µM (inactive)
CC(=O)OCC1OC(NC(=O)N(CCCl)N=O)C(OC(C)=O)C(OC(C)=O)C1OC(C)=O (configuration not stated)	> 100 µM (inactive)	> 100 µM (inactive)	> 100 µM (inactive)	> 100 µM (inactive)		75.9 µM (inactive)	> 100 µM (inactive)		> 100 µM (inactive)	> 100 µM (inactive)	> 86.7 µM (inactive)	> 100 µM (inactive)	> 100 µM (inactive)	43.9 µM (inactive)	> 100 µM (inactive)	> 100 µM (inactive)		> 100 µM (inactive)
COc1ccc2[nH]c3c(C)c4cc[n+](COC(=O)c5ccccc5)cc4c(C)c3c2c1	0.897 µM (active)	1.43 µM (inactive)	2.66 µM (inactive)	1.19 µM (inactive)	0.101 µM (active)	1.48 µM (inactive)	0.158 µM (active)	0.0313 µM (active)	0.168 µM (active)	0.0668 µM (active)	0.569 µM (active)	0.375 µM (active)	0.144 µM (active)	1.09 µM (active)	0.391 µM (active)		0.148 µM (active)	0.628 µM (active)
CC1=NNC(=O)C2CCC(=O)N12 (configuration not stated)	> 100 µM (inactive)	> 100 µM (inactive)	> 100 µM (inactive)	> 100 µM (inactive)	> 100 µM (inactive)		> 100 µM (inactive)	> 100 µM (inactive)	> 100 µM (inactive)	> 100 µM (inactive)	> 100 µM (inactive)		> 100 µM (inactive)		> 100 µM (inactive)	> 100 µM (inactive)	> 100 µM (inactive)	> 100 µM (inactive)
O=C1OC2C(O)COC2(O)C1(O)Cc1c[nH]c2ccccc12.O=C1OC2C(O)COC2(OCc2c[nH]c3ccccc23)C1O (configuration not stated)	> 100 µM (inactive)	> 100 µM (inactive)	> 100 µM (inactive)	> 100 µM (inactive)		> 100 µM (inactive)	> 100 µM (inactive)	> 100 µM (inactive)	> 100 µM (inactive)	> 100 µM (inactive)	> 100 µM (inactive)	> 100 µM (inactive)	> 100 µM (inactive)	> 100 µM (inactive)	> 100 µM (inactive)		> 100 µM (inactive)	> 100 µM (inactive)
O=C(NO)C(=O)Nc1ccc(Cl)cc1[N+](=O)[O-]	> 100 µM (inactive)	> 100 µM (inactive)	> 100 µM (inactive)	> 100 µM (inactive)	> 100 µM (inactive)		> 100 µM (inactive)	> 100 µM (inactive)	> 100 µM (inactive)	> 100 µM (inactive)	66.5 µM (inactive)	83.9 µM (inactive)	> 100 µM (inactive)	> 100 µM (inactive)	> 100 µM (inactive)	> 100 µM (inactive)	> 100 µM (inactive)	> 100 µM (inactive)
CCCCC(C)/C=C/C(O)=C1\C(=O)O/C(=C\C(=O)O)C1=O (configuration not stated)	> 100 µM (inactive)	> 100 µM (inactive)	> 100 µM (inactive)	> 100 µM (inactive)	> 100 µM (inactive)	> 100 µM (inactive)	> 100 µM (inactive)	> 100 µM (inactive)	> 100 µM (inactive)	> 100 µM (inactive)			> 100 µM (inactive)	> 100 µM (inactive)			> 100 µM (inactive)	> 100 µM (inactive)
CC(C)(O)[C@H](CCO)O[Si](c1ccccc1)(c1ccccc1)C(C)(C)C	15 µM (inactive)	17.1 µM (inactive)		15.5 µM (inactive)	5.94 µM (inactive)	8.18 µM (inactive)	12.2 µM (inactive)	4.93 µM (inactive)		12.8 µM (inactive)		10.8 µM (inactive)	10.4 µM (inactive)	11.3 µM (inactive)	6.67 µM (inactive)	6.01 µM (inactive)	11.6 µM (inactive)	4.99 µM (inactive)
Nc1nc(N)c2ncn(CC(CO)CC(c3ccccc3)P(=O)(O)O)c2n1 (configuration not stated)	> 100 µM (inactive)	> 100 µM (inactive)	> 100 µM (inactive)	> 100 µM (inactive)	> 100 µM (inactive)	> 100 µM (inactive)	> 100 µM (inactive)			> 100 µM (inactive)	> 100 µM (inactive)	> 100 µM (inactive)	> 100 µM (inactive)	> 100 µM (inactive)	> 100 µM (inactive)	> 100 µM (inactive)		> 100 µM (inactive)
C=C1C(=O)O[C@@H]2OC3(C)CCC4C(C)CCC1C42OO3 (some centres not stated)			22.1 µM (inactive)	3.18 µM (inactive)		2.16 µM (inactive)	3.58 µM (inactive)		12.6 µM (inactive)	3.05 µM (inactive)	2.36 µM (inactive)	1.85 µM (inactive)	1.42 µM (inactive)	2.07 µM (inactive)	1.7 µM (inactive)	13.1 µM (inactive)		0.449 µM (active)
COc1ccc(C2COc3c(ccc(O)c3C)C2)cc1OC (configuration not stated)	157 µM (inactive)	121 µM (inactive)	163 µM (inactive)	149 µM (inactive)		22.9 µM (inactive)	130 µM (inactive)		89.3 µM (inactive)	81.3 µM (inactive)	112 µM (inactive)	53.5 µM (inactive)	17.7 µM (inactive)	96.2 µM (inactive)	39.7 µM (inactive)	27.9 µM (inactive)		21.6 µM (inactive)
COc1cc(/C=C(\C)c2ccc3c(c2)OCO3)cc(OC)c1OC	37.9 µM (inactive)	19.8 µM (inactive)	70 µM (inactive)	29.2 µM (inactive)	10.3 µM (inactive)		25.1 µM (inactive)	19.3 µM (inactive)	32.5 µM (inactive)	19.1 µM (inactive)					20.2 µM (inactive)	25.5 µM (inactive)	14.7 µM (inactive)	15.7 µM (inactive)
CN(C)CCNC(=O)c1cccc2ccc(-c3ccc(Br)cc3)nc12	8.87 µM (inactive)	2.55 µM (inactive)	0.832 µM (active)	2.8 µM (inactive)		2.16 µM (inactive)	2.96 µM (inactive)		2.76 µM (inactive)	1.17 µM (inactive)	1.3 µM (inactive)	2.49 µM (inactive)	1.29 µM (inactive)	1.8 µM (inactive)	1.6 µM (inactive)	1.85 µM (inactive)		1.23 µM (inactive)
Cc1cc2oc(-c3ccccc3)c(C)c(=O)c2c2c1OC(C)(C)S2		> 100 µM (inactive)	> 100 µM (inactive)	63.7 µM (inactive)	> 100 µM (inactive)	> 100 µM (inactive)	> 100 µM (inactive)	29.6 µM (inactive)	> 100 µM (inactive)	> 100 µM (inactive)		27.2 µM (inactive)	47 µM (inactive)	> 100 µM (inactive)	72.3 µM (inactive)	> 100 µM (inactive)	> 100 µM (inactive)	8.13 µM (inactive)
CCOC(=O)C(C(=O)OCC)P(=S)(S)c1ccccc1 (configuration not stated)		> 100 µM (inactive)	> 100 µM (inactive)	> 100 µM (inactive)	> 100 µM (inactive)	> 100 µM (inactive)	> 100 µM (inactive)	> 100 µM (inactive)	> 100 µM (inactive)	> 100 µM (inactive)	> 100 µM (inactive)	> 100 µM (inactive)		> 100 µM (inactive)	> 100 µM (inactive)		> 100 µM (inactive)	> 100 µM (inactive)
